From the CheMixHub ionic liquid set

Assay: xn = mol fraction of the nth substance listed
Settings: for electrical conductivity: 100 kPa; for viscosity: 101 kPa

CCCCCCCCCCCCCCCC[n+]1ccccc1.[Cl-] + NCC(=O)NCC(=O)O + O
electrical conductivity [S/m]
Settings | x1 = 8.993e-05, x2 = 0.001802 | x1 = 8.996e-05, x2 = 0.001442 | x1 = 8.999e-05, x2 = 0.001082 | x1 = 9.003e-05, x2 = 0.0007214 | x1 = 9.006e-05, x2 = 0.0003609 | x1 = 9.009e-05, x2 = 0
298.15 K | 0.024 | 0.023 | 0.022 | 0.021 | 0.02 | 0.02
303.15 K | 0.025 | 0.024 | 0.023 | 0.022 | 0.021 | 0.021
308.15 K | 0.027 | 0.026 | 0.024 | 0.023 | 0.022 | 0.021
313.15 K | 0.028 | 0.027 | 0.025 | 0.024 | 0.023 | 0.023

CCCCCCCCCCCCCCCC[N+](C)(C)C.[Br-] + NCC(=O)O + O
viscosity [mPa·s]
Settings | 298.15 K | 303.15 K | 308.15 K | 313.15 K
x2 = 0.003591, x1 = 3.46e-06 | 0.906 | 0.819 | 0.74 | 0.67
x2 = 0.003591, x1 = 8.2e-06 | 0.909 | 0.82 | 0.742 | 0.671
x2 = 0.003591, x1 = 1.13e-05 | 0.912 | 0.82 | 0.745 | 0.672
x2 = 0.003591, x1 = 1.44e-05 | 0.914 | 0.825 | 0.749 | 0.674
x2 = 0.003591, x1 = 1.731e-05 | 0.922 | 0.827 | 0.752 | 0.675
x2 = 0.003591, x1 = 2.096e-05 | 0.93 | 0.831 | 0.755 | 0.678
x2 = 0.003591, x1 = 2.333e-05 | 0.932 | 0.843 | 0.757 | 0.68
x2 = 0.003591, x1 = 2.752e-05 | 0.936 | 0.847 | 0.759 | 0.683
x2 = 0.003591, x1 = 3.171e-05 | 0.94 | 0.853 | 0.761 | 0.689
x2 = 0.003591, x1 = 3.572e-05 | 0.94 | 0.855 | 0.764 | 0.692
x2 = 0.005377, x1 = 3.48e-06 | 0.879 | 0.801 | 0.725 | 0.644
x2 = 0.005377, x1 = 8.25e-06 | 0.881 | 0.804 | 0.726 | 0.644
x2 = 0.005377, x1 = 1.136e-05 | 0.884 | 0.805 | 0.726 | 0.645
x2 = 0.005377, x1 = 1.448e-05 | 0.886 | 0.807 | 0.727 | 0.647
x2 = 0.005377, x1 = 1.741e-05 | 0.89 | 0.808 | 0.728 | 0.648
x2 = 0.005377, x1 = 2.108e-05 | 0.893 | 0.811 | 0.731 | 0.649
x2 = 0.005377, x1 = 2.346e-05 | 0.896 | 0.813 | 0.733 | 0.65
x2 = 0.005377, x1 = 2.767e-05 | 0.9 | 0.816 | 0.736 | 0.651
x2 = 0.005377, x1 = 3.189e-05 | 0.906 | 0.823 | 0.738 | 0.653
x2 = 0.005377, x1 = 3.592e-05 | 0.912 | 0.828 | 0.741 | 0.655
x2 = 0.007156, x1 = 3.5e-06 | 0.914 | 0.848 | – | –
x2 = 0.007156, x1 = 8.29e-06 | 0.918 | 0.852 | – | –
x2 = 0.007156, x1 = 1.143e-05 | 0.92 | 0.855 | – | –
x2 = 0.007156, x1 = 1.456e-05 | 0.922 | 0.859 | – | –
x2 = 0.007156, x1 = 1.751e-05 | 0.925 | 0.864 | – | –
x2 = 0.007156, x1 = 2.119e-05 | 0.926 | 0.868 | – | –
x2 = 0.007156, x1 = 2.359e-05 | 0.929 | 0.872 | – | –
x2 = 0.007156, x1 = 2.783e-05 | 0.933 | 0.876 | – | –
x2 = 0.007156, x1 = 3.206e-05 | 0.937 | 0.882 | – | –
x2 = 0.007156, x1 = 3.612e-05 | 0.944 | 0.886 | – | –
